Legend:
[1] = disclosed in Patent Literature 2 (WO2022/045052); cited from earlier work
[2] = Octanol/water partition coefficient (log P), HPLC; conditions: octanol/purified water, log10(concentration in octanol layer/concentration in aqueous layer)
Description: (§1) Then, 10 mL of octanol was added to each aqueous solution and shaken for 1 minute. 2 mL each was taken from the aqueous layer and the octanol layer, centrifuged, and allowed to stand for 1 hour. 1 mL was precisely measured from the standing solution, 2-propanol was added, and the volume was made up to 10 mL. […] (log P=log10 (concentration in octanol layer/concentration in aqueous layer))

Description for physchem: as §1

| SMILES | logP (physchem) | hydrogen sulfide elimination effect [1] | Partition coefficient (logP) [2] |
| --- | --- | --- | --- |
| CC(=O)OCC(C)(C)[C@@H](O)C(=O)NCCC(=O)NCCSSSCCNC(=O)CCNC(=O)[C@H](O)C(C)(C)COC(C)=O [Ac-PTN-SSS, acetyl derivative of pantethine trisulfide] | 0.91 |  |  |
| CC(C)(CO)[C@@H](O)C(=O)NCCC(=O)NCCSSSCCNC(=O)CCNC(=O)[C@H](O)C(C)(C)CO [PTN-SSS, Pantethine trisulfide] |  | has a hydrogen sulfide elimination effect | −0.39 |
| CC1(C)OCC(C)(C)[C@H](C(=O)NCCC(=O)NCCSSSCCNC(=O)CCNC(=O)[C@@H]2OC(C)(C)OCC2(C)C)O1 [Acetonide-PTN-SSS, acetonide derivative of pantethine trisulfide] | 1.56 |  |  |
